Data: ChEMBL document CHEMBL5674860, “Optimized Dual-Glo Assay to identify co-culture-induced drug vulnerabilities in 3D CRC models” (2024)

Legend:
Assay type in all cases: functional, Homo sapiens
Set-up in all cases: dose or concentration left out as unconfirmed
Colon cancer organoid [1] = assay: Optimized Dual-Glo assay to identify co-culture induced drug vulnerabilities using donated chemical probes and chemogenomics kinase set in O06 CRC organoid and F06 CAF mono and co-culture. […] Cell viability is reported both mono and co-culture models.
Colon cancer organoid [2] = assay: Optimized Dual-Glo assay to identify co-culture induced drug vulnerabilities using donated chemical probes and chemogenomics kinase set in O20 CRC organoid and F20 CAF mono and co-culture. […] Cell viability is reported both mono and co-culture models.
Colon cancer organoid [3] = assay: Optimized Dual-Glo assay to identify co-culture induced drug vulnerabilities using donated chemical probes and chemogenomics kinase set in O14 CRC organoid and F14 CAF mono and co-culture. […] Cell viability is reported both mono and co-culture models.
[4] = Culture type Co-Culture, Transduced with Lucferase2-P2A-EGFP lentivirus
[5] = Culture type Co-Culture, Transduced with Renilla-dsRed lentivirus
[6] = Culture type Mono-Culture, Transduced with Lucferase2-P2A-EGFP lentivirus
[7] = Culture type Mono-Culture, Transduced with Renilla-dsRed lentivirus

SMILES | Cell Viability (Colon cancer organoid [1]; [4]) | Cell Viability (Colon cancer organoid [1]; [5]) | Cell Viability (Colon cancer organoid [1]; [6]) | Cell Viability (Colon cancer organoid [1]; [7]) | Cell Viability (Colon cancer organoid [2]; [4]) | Cell Viability (Colon cancer organoid [2]; [5]) | Cell Viability (Colon cancer organoid [2]; [6]) | Cell Viability (Colon cancer organoid [2]; [7]) | Cell Viability (Colon cancer organoid [3]; [4]) | Cell Viability (Colon cancer organoid [3]; [5]) | Cell Viability (Colon cancer organoid [3]; [6]) | Cell Viability (Colon cancer organoid [3]; [7])
COc1ccc(COc2ccc(Cc3cnc(N)nc3N)cc2OC)cc1 [GW632580X] | 84.8428% | 83.7807% | 109.175% | 109.596% | 200.024% | 84.9331% | 115.095% | 88.8877% | 102.637% | 115.835% | 144.397% | 94.931%
O=C(O)c1ccc2c(c1)nc(Nc1cccc(Cl)c1)c1ccncc12 [SILMITASERTIB] | 108.166% | 80.6873% | 78.7074% | 100.788% | 158.738% | 81.7658% | 95.6239% | 79.8512% | 93.7278% | 109.514% | 89.7197% | 119.06%
Cc1cn(-c2cc(NC(=O)c3ccc4c(c3)CN(c3cncnc3)C[C@@H]4C)cc(C(F)(F)F)c2)cn1 | 85.5561% | 98.7805% | 59.4105% | 105.628% | 88.3808% | 107.854% | 86.0975% | 111.829% | 105.46% | 96.2213% | 134.218% | 97.9875%
CC(=O)Nc1c(F)cc(C(=O)N[C@H]2CC[C@H](O)CC2)cc1O[C@@H](C)c1ccccc1 [GSK046] | 141.493% | 157.689% | 89.308% | 140.24% | 117.929% | 118.66% | 59.393% | 129.379% | 94.8329% | 149.721% | 98.5047% | 138.141%
CCC(=O)N[C@@H]1CC[C@H](C(=O)N(C)c2ccc(-c3nc4ccccc4o3)cc2)C1 [BI 99990] | 135.832% | 173.184% | 107.841% | 87.7071% | 115.817% | 121.154% | 99.9084% | 146.017% | 87.159% | 112.98% | 99.3505% | 100.76%
CC(=O)C1=C(C)N(c2cccc(C(F)(F)F)c2)C(=O)N[C@H]1c1ccc(C#N)nc1 [BAY-677] | 113.366% | 134.225% | 107.227% | 105.031% | 134.265% | 107.791% | 113.459% | 115.06% | 86.1981% | 131.912% | 107.006% | 91.8517%
CC1=CC(C)=[N+]2C1=C(CCCCc1cn(CC(=O)N3CCc4nc(NC(=O)[C@H]5CCN(C#N)C5)sc4C3)nn1)c1c(C)cc(C)n1[B-]2(F)F | 125.029% | 111.523% | 94.7301% | 81.9832% | 77.2227% | 101.216% | 73.7517% | 82.644% | 88.5952% | 139.238% | 60.7776% | 90.2828%
O=C(Nc1cccnn1)N1CC(C/C=C/c2cncc(Oc3ccc(C(F)(F)F)cn3)n2)C1 | 131.321% | 196.307% | 116.585% | 92.4101% | 97.9448% | 112.944% | 119.523% | 106.69% | 84.7499% | 109.288% | 99.5215% | 99.7577%
CC(C)(O)CNc1ncc(-c2ccnc(Nc3ccnc(Cl)c3)n2)c(CC2CC2)n1 | 30.6205% | 168.017% | 58.1247% | 187.59% | 67.7034% | 172.835% | 40.8339% | 186.893% | 100.5% | 183.934% | 107.577% | 192.643%
O=c1nc(-c2ccccn2)sc2ccccc12 [BTZO-1] | 150.72% | 152.299% | 108.701% | 93.9423% | 113.092% | 104.485% | 93.617% | 87.2617% | 72.8422% | 97.4125% | 100.899% | 88.8475%
CN1CCN(C(=O)C(C)(C)c2ccc(C(=O)Nc3cn4cc(-c5cc(C(C)(C)C)cc(C(C)(C)C)c5)ccc4n3)cc2)CC1 [T3-CLK-N] | 119.67% | 85.6501% | 109.915% | 85.7063% | 83.0148% | 112.725% | 124.688% | 67.9916% | 129.357% | 95.6255% | 93.4655% | 83.9103%
Cc1nc(NC(=O)N2CCC[C@H]2C(N)=O)sc1-c1ccnc(C(C)(C)C(F)(F)F)c1 [ALPELISIB] | 74.6278% | 68.5217% | 72.4718% | 69.5837% | 70.7946% | 99.8659% | 21.7931% | 78.1697% | 44.356% | 105.185% | 47.7974% | 68.4414%
NS(=O)(=O)c1cc(NC(=O)Cc2ccccc2)ccc1Oc1cccc(Cl)c1 [BAY-1797] | 120.23% | 167.635% | 96.4062% | 112.706% | 89.0927% | 86.996% | 102.238% | 103.793% | 108.747% | 112.127% | 131.361% | 106.475%
C[C@@H]1CCNC(=O)c2cc3ccc(C(=O)Nc4nc5ccccc5n4CCCN(C)C)cc3n21 | 65.6776% | 63.6239% | 102.952% | 73.3213% | 64.9365% | 147.158% | 51.9591% | 102.286% | 91.1023% | 83.3009% | 101.537% | 86.0489%
COc1cc(-c2cn(C)c(=O)c3cnccc23)c(OC)cc1CN(C)C | 79.252% | 108.934% | 73.0791% | 96.9165% | 61.2069% | 139.676% | 83.2777% | 82.5544% | 86.2085% | 136.409% | 67.8836% | 114.194%
Cc1nnc2c3ccccc3c(N[C@@H](C)[C@H](c3ccccc3)N(C)C)nn12 | 95.7989% | 115.114% | 100.296% | 129.772% | 82.0862% | 127.368% | 95.9209% | 100.184% | 89.8317% | 122.44% | 117.177% | 107.176%
Cc1cnc(-c2cc(Cl)ccc2F)cc1-n1c(=O)n(CC(N)=O)c2cnccc21 [TP-008] | 13.7504% | 213.932% | 47.0575% | 82.299% | 64.1613% | 114.054% | 79.9392% | 106.384% | 97.8203% | 116.603% | 124.72% | 98.4627%
CNC(=O)c1ccccc1Nc1cc(Nc2ccc(N3CCOCC3)cc2OC)ncc1C(F)(F)F [VS-4718] | 52.8737% | 57.2971% | 31.5838% | 48.5863% | 13.8337% | 72.4438% | 12.23% | 46.798% | 33.8151% | 68.2368% | 15.2403% | 46.526%
